Reference: patent publication US9636409B2, “Enzyme and receptor modulation using covalent conjugates of alpha,alpha-disubstituted glycine esters” (GlaxoSmithKline Intellectual Property Development Limited, priority 2008, dated 2017)

Assays:
U937 cells = assay: Cell accumulation assay in U937 cells; type: in vitro ADME; details: U937 versus HUT 78; result in words
Experimental: Cells (8×10^4/mL) were incubated at 37° C. in culture medium containing 6 μM compound in a 5% (v/v) CO2-humidified atmosphere. Incubations were terminated after 6 h by centrifugation of 25 mL aliquots of the cell suspension at 300 g for 5 minutes at 4° C. 0.2 mL samples of the culture media supernatants were added to 4 volumes of acetonitrile (Sigma-Aldrich). After decanting the supernatant, the residual cell pellet (2×10^6 cells) was extracted into 1 mL of acetonitrile. Samples were then analysed for the ester and acid metabolite at room temperature by LC/MS/MS (Sciex API3000). Chromatography was based on a MeCN (75×21 mm) column with a 5-95% (v/v) acetonitrile, 0.1% (v/v) formic acid mobile phase. For the zero time samples, the cell suspension was chilled and centrifuged as soon as the ester had been added and then extracted into acetonitrile as described. Levels in cells are expressed as ng/mL.

recombinant hCE-1 = molecular target: T1, recombinant hCE-1 (Homo sapiens, UniProt P23141); assay: HCE-1 carboxylesterase assay; type: in vitro ADME; details: result in words
T1 sequence (P23141 18-567): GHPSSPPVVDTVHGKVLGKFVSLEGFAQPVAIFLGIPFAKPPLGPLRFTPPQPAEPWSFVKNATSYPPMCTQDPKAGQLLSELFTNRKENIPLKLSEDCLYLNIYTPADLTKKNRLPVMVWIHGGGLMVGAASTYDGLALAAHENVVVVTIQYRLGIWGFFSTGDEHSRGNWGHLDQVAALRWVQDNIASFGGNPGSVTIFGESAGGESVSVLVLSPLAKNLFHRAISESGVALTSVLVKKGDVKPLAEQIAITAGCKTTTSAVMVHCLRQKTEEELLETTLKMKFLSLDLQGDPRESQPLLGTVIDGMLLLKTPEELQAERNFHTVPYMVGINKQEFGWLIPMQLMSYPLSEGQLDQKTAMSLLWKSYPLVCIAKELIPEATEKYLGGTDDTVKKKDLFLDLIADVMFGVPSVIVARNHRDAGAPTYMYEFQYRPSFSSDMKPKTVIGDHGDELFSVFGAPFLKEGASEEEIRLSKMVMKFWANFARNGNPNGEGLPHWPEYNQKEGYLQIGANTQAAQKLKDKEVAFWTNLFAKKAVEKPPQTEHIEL
Experimental: HCE-1 Carboxylesterase Assay
Hydrolysis of esters to the corresponding carboxylic acids by hCE-1 can be measured using the following procedure. At zero time, 100 μl of recombinant hCE-1 at a concentration of 6 μg/mL in phosphate assay buffer (K2PO4 100 mM, KCl 40 mM, pH 7.4) was added to an equal volume of assay buffer containing 5 μM ester substrate. After thorough mixing, triplicate samples were incubated for 0, 20 or 80 minutes at 37° C. At the appropriate time, hydrolysis was stopped by the addition of 600 μl of acetonitrile. For zero time samples, the acetonitrile was added prior to the enzyme. The samples were analysed for the ester and its corresponding carboxylic acid at room temperature by LCMS (Sciex API 3000, HP1100 binary pump, CTC PAL). Chromatography was based on a […] (75×2.1 mm) column and a mobile phase of 5-95% acetonitrile in water/0.1% formic add. Levels of the acid, the hydrolysis product, after 80 minutes are expressed in ng/mL.

[1] = test system: phosphorylation of MAPKAP-2 in HUT 78 cells; assay: p38 MAP Kinase cellular assay: inhibition of phosphorylation of MAPKAP2 in HUT 78 cells; type: cell-based; details: Table 2
Experimental: p38 MAP Kinase Cellular Assay: Inhibition of Phosphorylation of MAPKAP2
U937 or HUT78 cells were plated in RPMI 1640, and were incubated at 37° C., 5% CO2 for 18 hours. 10 mM stocks of compounds were diluted media/0.1% DMSO to give a log or semi-log dilution series. The wells for ‘no treatment’ and ‘anisomycin’ were treated with 0.1% DMSO only. The cells were incubated at 37° C., 5% CO2 for a further 4 hours. Anisomycin was added to all wells except ‘no treatment’ at a final concentration of 10 μM. The cells were incubated at 37° C., 5% CO2 for 30 minutes before harvest. Plates were stood on ice whilst harvesting, and all following steps were carried out at 4° C. The cells were pelleted at 1000 rpm for 10 minutes at 4° C., the media aspirated, and the pellet washed with cold PBS. The pellets were lysed in 120 μl of SDS lysis buffer (62.5 mM Tris, pH 6.8, 2% SDS, 10% glycerol, 50 mM DTT, with protease inhibitors and phosphatase inhibitors added according to the manufacturers' recommendations). After 30 minutes on ice, the samples were sonicated for 5 seconds before centrifugation at 13,000 rpm 4° C. for 10 minutes to remove cell debris. 10 μl of the resulting gel samples were loaded per lane on NOVEX 4-12% Bis-Tris MOPS gels. Membranes from western transfer of gels were blotted with anti-phospho MAPKAP2, anti-phospho HSP27 and anti GAPDH according to the manufacturers' Instructions. Signal was visualised using HRP-Hnked anti-rabbit or anti-mouse antibodies, ECL reagent and ECL film. IC50 values for the various compounds were visualised from the resulting photographic images, using both band-shift and signal intensity.

p38 MAP Kinase α = molecular target: T2, p38 MAP Kinase α (Homo sapiens, UniProt Q16539); assay: p38 MAP Kinase enzyme assay; type: biochemical; details: Table 1 (biology); compound as such, Ester for Example 1; read-out: Inhibition of P38 (IC50 nM)
T2 construct: purchased Upstate (Dundee UK)
Experimental: p38 MAP Kinase Enzyme Assay
The ability of compounds to inhibit p38 MAPα Kinase activity was measured in an assay performed by Upstate (Dundee UK). In a final reaction volume of 25 μL, p38 MAP Kinase α (5-10 mU) is incubated with 25 mM Tris pH 7.5, 0.02 mM EGTA, 0.33 mg/mL myelin basic protein, 10 mM MgAcetate and [γ-^33P-ATP](specific activity approx. 500 cpm/pmol, concentration as required). The reaction is initiated by the addition of the MgATP mix. After incubation for 40 minutes at room temperature, the reaction is stopped by the addition of 5 μL of a 3% phosphoric acid solution. 10 μL of the reaction is then spotted onto a P30 filtermat and washed three times for 5 minutes in 75 mM phosphoric acid and once in methanol prior to drying and scintillation counting.
Duplicate data points are generated from a 1/3 log dilution series of a stock solution in DMSO. Nine dilutions steps are made from a top concentration of […], and a ‘no compound’ blank is included. The standard radiometric filter-binding assay is performed at an ATP concentration at, or close to, the Km. Data from scintillation counts are collected and subjected to free-fit analysis by Prism software. From the curve generated, the concentration giving 50% inhibition is determined and reported.

T2 sequence (Q16539 whole entry): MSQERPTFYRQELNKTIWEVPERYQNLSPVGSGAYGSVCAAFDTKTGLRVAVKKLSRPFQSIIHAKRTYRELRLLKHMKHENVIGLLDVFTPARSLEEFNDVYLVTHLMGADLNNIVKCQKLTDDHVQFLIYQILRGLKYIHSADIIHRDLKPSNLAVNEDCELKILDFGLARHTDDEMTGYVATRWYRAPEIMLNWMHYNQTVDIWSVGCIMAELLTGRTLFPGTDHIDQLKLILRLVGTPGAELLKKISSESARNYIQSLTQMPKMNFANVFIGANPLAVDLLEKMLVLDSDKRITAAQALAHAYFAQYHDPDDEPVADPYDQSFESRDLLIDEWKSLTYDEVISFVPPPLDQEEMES

hydrolysis by hCE-1 (recombinant hCE-1): hydrolysed by hCE-1
IC50 ([1]; Homo sapiens, HuT78, HUT 78 non-monocyte cell line): 1000 nM
IC50 (p38 MAP Kinase α): 50 nM
Structure (SMILES): CC(C)(NCCc1ccc(-n2c(N)c(C(=O)c3ccc(F)cc3F)ccc2=O)cc1)C(=O)OC1CCCC1 [Example 1]
accumulation in monocytic versus non-monocytic cell line (U937 cells): only accumulates in the monocytic cell line
Ratio IC50s in HUT 78 to U937 cells ([1]; MAPKAP-2 phosphorylation IC50s): 100
